How the values were obtained:
Experiment in all cases: relative viability (nuclei count vs DMSO), 5 days (fraction); higher = more cells survive
[1] = compound: C1=CC=C(C(=C1)C2=CC=C(C=C2)C3=CSC4=C3C(=C(C(=O)N4)C#N)O)O + CC1(C)CCC(c2ccc(Cl)cc2)=C(CN2CCN(c3ccc(C(=O)NS(=O)(=O)c4ccc(N[C@H](CCN5CCOCC5)CSc5ccccc5)c(S(=O)(=O)C(F)(F)F)c4)cc3)CC2)C1 [Navitoclax] (partner 0.5 µM)
Procedure, shortened: (§1)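 After 5 days of treatment, lung cancer cells in 1536-well plates were fixed and stained in a single step (final 0.05% Triton X-100, 1% formaldehyde, 1 ug/ml Hoechst) and their nuclei counted on 4× images. Treatment had been applied by pin tool the day after seeding as one drug alone or as a fixed anchor-drug dose with five library-drug doses (not always all listed) in √10 steps. Relative viability is the nuclei count of treated wells divided by that of vehicle wells, and values are medians of duplicate plates.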

[2] = compound: CC1=CN2C(=O)C=C(N=C2C(=C1)C(C)NC3=CC=CC=C3)N4CCOCC4 [TGX 221] + COc1cccc2cc(-c3nc([C@H]4CC[C@H](C(=O)O)CC4)n4ncnc(N)c34)[nH]c12 [OSI-027] (partner 0.5 µM)
Procedure, shortened: as §1

[3] = compound: O=C(CCCCCCNC(=O)c1cnc(N(c2ccccc2)c2ccccc2)nc1)NO [Ricolinostat] + C[C@]1(O)C[C@@H](c2nc(-c3ccc4ccc(-c5ccccc5)nc4c3)c3c(N)nccn32)C1 [Linsitinib] (partner 1 µM)
Procedure, shortened: as §1

[4] = compound: O=C(CCCCCCNC(=O)c1cnc(N(c2ccccc2)c2ccccc2)nc1)NO [Ricolinostat] + CC(=O)Nc1cccc(-n2c(=O)n(C3CC3)c(=O)c3c(Nc4ccc(I)cc4F)n(C)c(=O)c(C)c32)c1 [Trametinib] (partner 0.02 µM)
Procedure, shortened: as §1

Row | Cell Line | relative viability ([1]; first compound 0.08 µM) | relative viability ([1]; first compound 0.253 µM) | relative viability ([1]; first compound 0.8 µM) | relative viability ([1]; first compound 2.53 µM) | relative viability ([1]; first compound 8 µM) | relative viability ([2]; first compound 0.08 µM) | relative viability ([2]; first compound 0.253 µM) | relative viability ([2]; first compound 0.8 µM) | relative viability ([2]; first compound 2.53 µM) | relative viability ([2]; first compound 8 µM) | relative viability ([3]; first compound 0.08 µM) | relative viability ([3]; first compound 0.253 µM) | relative viability ([3]; first compound 0.8 µM) | relative viability ([3]; first compound 2.53 µM) | relative viability ([4]; first compound 0.08 µM) | relative viability ([4]; first compound 0.253 µM) | relative viability ([4]; first compound 0.8 µM) | relative viability ([4]; first compound 2.53 µM)
1 | HCC-827 | 1 | 1.12 | 1.04 | 1.04 | 1.04 | 0.735 | 0.761 | 0.799 | 0.727 | 0.78 | 0.896 | 0.91 | 0.966 | 1.02 | 0.49 | 0.527 | 0.581 | 0.584
2 | HOP-62 | 1.22 | 1.1 | 1.04 | 1.18 | 0.922 | 0.787 | 0.812 | 0.788 | 0.807 | 0.835 | 1.03 | 0.991 | 0.943 | 0.644 | 0.335 | 0.391 | 0.384 | 0.432
3 | IA-LM | 0.696 | 1.06 | 0.76 | 0.797 | 0.399 |  |  |  |  |  | 0.335 | 0.529 | 0.594 | 0.259 |  |  |  | 
4 | LC-2-ad | 0.464 | 0.382 | 0.687 | 0.421 | 0.361 | 0.745 | 0.759 | 0.931 | 0.846 | 0.804 | 0.799 | 0.834 | 0.825 | 0.684 | 0.899 | 0.911 | 0.907 | 0.836
5 | LCLC-97TM1 | 0.379 | 0.719 | 0.514 | 0.393 | 0.453 | 0.357 | 0.466 | 0.494 | 0.485 | 0.546 | 0.171 | 0.199 | 0.231 | 0.172 | 0.195 | 0.182 | 0.25 | 0.287
6 | LCLC-103H |  |  |  |  |  | 0.425 | 0.453 | 0.438 | 0.394 | 0.411 | 0.925 | 1.06 | 1.09 | 1.11 | 0.632 | 0.599 | 0.685 | 0.77
7 | LK-2 |  |  | 0.895 | 0.87 | 0.683 | 0.212 | 0.246 | 0.216 | 0.225 | 0.237 | 0.629 | 0.645 | 0.613 | 0.524 | 0.756 | 1.04 | 0.817 | 0.718
8 | LOU-NH91 | 0.693 | 0.722 | 0.658 | 0.638 | 0.551 | 0.711 | 0.72 | 0.727 | 0.745 | 0.701 |  | 0.927 | 0.973 | 0.88 |  | 0.783 | 0.763 | 0.864
9 | LU99A | 0.64 | 0.878 | 0.804 | 0.791 | 0.769 | 0.275 | 0.313 | 0.328 | 0.346 | 0.293 | 0.495 | 0.473 | 0.455 | 0.419 | 0.555 | 0.559 | 0.475 | 0.599
10 | LXF-289 | 0.951 | 0.968 | 0.996 | 0.994 | 0.967 | 0.817 | 0.809 | 0.756 | 0.754 | 0.757 | 0.93 | 0.956 | 0.966 | 0.962 | 0.675 | 0.638 | 0.688 | 0.629
